Measured values published in patent US9808477B2 (Macau University of Science and Technology, priority 2015, dated 2017).

Key:
[1] = in vitro; assay type: cell-based; settings: human
Protocol: Sulphorhodamine B (SRB) assays were used for cell density determination, based on sensitive measure of total cellular protein, which perform similarly compared with other proliferation assays such as MTT assay. Briefly, cells were seeded into flat bottomed 96-well plates at an initial density of 7.5×10^3 per well before treatment. […] After removing the medium, cells were fixed in 10% trichloroacetic acid for 1 h at 4° C. and then washed with water five times. 0.4% SRB dissolved in 1% v/v acetic acid was added and incubated […] for staining. The cells were quickly washed with 1% acetic acid and left to dry overnight. The protein bound SRB was solubilized by adding 200 μl 10 mM Tris buffer per well and was measured at wavelengths 490 nm using a plate reader (Spectra MAX 250; Molecular Devices, Sunnyvale, Calif.). The optical density of SRB in each well is directly proportional to the cell number.

[2] = tested on: A2780/T cells; assay: Apoptosis analysis by Annexin-V/PI double staining; assay type: cell-based, human
Protocol: After treatment, 1×10^6 cells were collected, washed and suspended in 100 μl of binding buffer (10 mM N-2-hydroxyethylpiperazine-N,-2-ethanesulfonic acid/NaOH, 140 mM NaCl, 2.5 mM CaCl2, pH 7.4). Apoptotic cells were identified by double supravital staining with 5 μl recombinant FITC (fluorescein isothiocyanate)-conjugated Annexin-V and 5 μl PI (50 μg/ml). The cells were stained for […] at room temperature in the dark, and analyzed by fluorescence-activated cell sorting cater-plus flow cytometry. Data acquisition and analysis were performed in BD FACS Aria with FlowJo software.

[3] = tested on: A2780/T cells; assay: Cell cycle analysis (PI, flow cytometry); assay type: cell-based, human
Protocol: A2780/T cells were harvested 24 hours, 48 hours, or 72 hours after treatment and washed twice with ice-cold PBS. The cells were fixed and permeabilized with 70% ice-cold ethanol overnight at 4° C. or 2 h at −20° C. After one additional wash in PBS, cells were stained with a staining solution containing propidium iodide (PI) ([…]) and RNase A (250 μg/ml) for 30 min at room temperature. They were then pelleted, washed and suspended in PBS to a final concentration of 1×10^6/ml and analyzed by flow cytometry BD FACS Aria (BD Biosciences, San Jose, Calif.).

[4] = healthy subjects, single dose of Sytrinol (1053 mg total polymethoxylated flavones); cited from earlier work
[5] = nobiletin 9 μM in combination with 0.94 μM PTX

COc1ccc(-c2cc(=O)c3c(OC)c(OC)c(OC)c(OC)c3o2)cc1OC [nobiletin]
viability at 9 µM [1]: > 90%
apoptosis induction, single treatment ([2]; 9 μM nobiletin alone or 0.94 μM PTX alone): did not show apoptosis induction
apoptosis induced by 0.94 μM PTX (annexin V-FITC positive) ([2]; 0.5, 1.5, 4.5 and 9 μM nobiletin + 0.94 μM PTX, 48 h): significantly increase apoptosis
effect on the cell cycle ([3]; nobiletin 9 μM alone): no effect
G1 phase cells [3, 5]: 9.6%
G2 phase cells [3, 5]: 75.77%
peak plasma level [4]: ~2.5 µM
